In patent US7445897B2, “Sequence variants of multi-drug resistance genes, MDR1 and MRP1, and methods for assessment of drug penetration and disposition” (University of Washington, priority 2004, dated 2008):
Like-named read-outs stand apart in the source and are kept apart here.

What was measured:
LLC-PK1 control cells [1] = tested on: LLC-PK1 control cells
[2] = tested on: P-gp (MDR11199, G1199A) in recombinant LLC-PK1 cells; details: human, LLC-PK1
[3] = van Heeswijk et al. 2001; cited from earlier work
[4] = tested on: HEK negative control cells; assay: Cytotoxic drug sensitivity assay (MTS); assay type: cell-based, human; details: Homo sapiens, 72 h
MDR1 (G1199T variant) = assay: Cytotoxic drug sensitivity assay (MTS); assay type: cell-based, human; details: human, HEK293 cells recombinantly expressing MDR1 G1199T
MDR1 (wild type) = assay: Cytotoxic drug sensitivity assay (MTS); assay type: cell-based, human; details: human, HEK293 cells recombinantly expressing MDR1 wild type
LLC-PK1 control cells [5] = assay: Intracellular uptake of HIV protease inhibitors; assay type: in vitro ADME, porcine
[6] = tested on: recombinant MDR11199 LLC-PK1 cells; assay: Cytotoxic drug sensitivity assay (3H-thymidine); assay type: cell-based, porcine; details: for EC50 fold-change from control: MDR11199 vs LLC-PK1 control; for resistance of MDR11199 cells relative to MDR1wt cells: MDR11199 vs MDR1wt, from EC50; for EC50: Sus scrofa, 72 h, MDR11199 LLC-PK1 cells, 3 days with drug; for resistance of MDR11199 cells compared with MDR1wt cells: cytotoxicity studies, LLC-PK1
Experimental: (§1) On the second day of the incubation, 1 μCi of ^3H-thymidine (specific activity: 81.1 Ci/mmole) was added to each well and incubated overnight. Cells were harvested on day 3 with a cell harvester.
(§2) Dose response analysis was performed for doxorubicin, vincristine and vinblastine. […] TRANSEPITHELIAL TRANSPORT

LLC-PK1 control cells [7] = assay: Cytotoxic drug sensitivity assay (3H-thymidine); assay type: cell-based, porcine; details: Sus scrofa, 72 h, 3 days with drug
Experimental: as §1, §2

[8] = tested on: recombinant MDR1wt LLC-PK1 cells; assay: Cytotoxic drug sensitivity assay (3H-thymidine); assay type: cell-based, porcine; details: for EC50 fold-change from control: MDR1wt vs LLC-PK1 control; for EC50: Sus scrofa, 72 h, MDR1wt LLC-PK1 cells, 3 days with drug
Experimental: as §1, §2

rMRP1 = target: T1, rMRP1 (Rattus norvegicus, UniProt Q8CG09); assay: Transepithelial transport in differentiated rMRP1-MDCK cells; assay type: in vitro ADME
T1 construct: expressed in transfected cells
Description: These stable recombinant cells can be used to evaluate drug candidates that are either MRP1 substrates or inhibitors, as well as further elucidate MRP1 structure and function.

MDR1 (G1199A variant) = assay: in vitro; details: human; for EC50 at 72 h: HEK293 cells recombinantly expressing MDR1 G1199A
HEK293 control cells = assay: Intracellular levels of Rhodamine123 in HEK cells; assay type: cell-based, human
[9] = target: T2, MDR1G1199A in recombinant HEK cells (Homo sapiens, UniProt P08183, G185V/S400N/S893A); assay: Intracellular levels of Rhodamine123 in HEK cells; assay type: cell-based
T2 construct: full-length MDR1 cDNA was generated using the high-fidelity protocol developed previously; expressed in transfected cells
T2 sequence (P08183 whole entry G185V/S400N/S893A): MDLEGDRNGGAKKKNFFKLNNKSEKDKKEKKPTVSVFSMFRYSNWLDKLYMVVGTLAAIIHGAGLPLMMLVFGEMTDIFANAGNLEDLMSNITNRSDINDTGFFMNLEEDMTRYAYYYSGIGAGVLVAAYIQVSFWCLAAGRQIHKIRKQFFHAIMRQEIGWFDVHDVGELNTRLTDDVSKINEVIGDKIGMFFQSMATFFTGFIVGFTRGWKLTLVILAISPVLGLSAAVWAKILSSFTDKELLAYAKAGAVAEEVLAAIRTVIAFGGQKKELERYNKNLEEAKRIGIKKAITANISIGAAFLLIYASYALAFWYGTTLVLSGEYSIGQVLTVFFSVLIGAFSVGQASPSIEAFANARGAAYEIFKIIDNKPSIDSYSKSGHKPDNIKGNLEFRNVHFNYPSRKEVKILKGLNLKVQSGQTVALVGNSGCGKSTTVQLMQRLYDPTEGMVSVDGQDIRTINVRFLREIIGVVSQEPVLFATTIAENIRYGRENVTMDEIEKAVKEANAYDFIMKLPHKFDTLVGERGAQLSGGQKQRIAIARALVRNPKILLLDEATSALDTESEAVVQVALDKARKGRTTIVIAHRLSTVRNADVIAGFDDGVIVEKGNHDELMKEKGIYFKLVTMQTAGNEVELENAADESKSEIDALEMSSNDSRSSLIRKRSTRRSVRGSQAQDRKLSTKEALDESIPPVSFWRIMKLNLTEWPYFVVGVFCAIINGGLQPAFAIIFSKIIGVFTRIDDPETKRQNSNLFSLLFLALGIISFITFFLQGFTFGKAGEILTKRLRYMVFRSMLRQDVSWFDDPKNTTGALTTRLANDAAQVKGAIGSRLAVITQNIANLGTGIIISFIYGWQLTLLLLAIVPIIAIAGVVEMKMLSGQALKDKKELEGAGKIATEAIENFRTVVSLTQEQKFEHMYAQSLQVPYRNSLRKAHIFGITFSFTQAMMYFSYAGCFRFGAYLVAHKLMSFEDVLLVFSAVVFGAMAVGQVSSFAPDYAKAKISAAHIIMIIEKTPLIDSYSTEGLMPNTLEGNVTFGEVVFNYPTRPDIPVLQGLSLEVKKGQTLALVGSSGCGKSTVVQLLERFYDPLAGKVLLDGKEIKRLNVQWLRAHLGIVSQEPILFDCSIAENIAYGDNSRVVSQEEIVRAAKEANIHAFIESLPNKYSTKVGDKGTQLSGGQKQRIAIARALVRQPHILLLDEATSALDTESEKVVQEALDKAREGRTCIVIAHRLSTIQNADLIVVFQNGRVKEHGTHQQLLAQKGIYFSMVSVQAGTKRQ

[10] = target: T3, MDR1G1199T in recombinant HEK cells (Homo sapiens, UniProt P08183, G185V/S400I/S893A); assay: Intracellular levels of Rhodamine123 in HEK cells; assay type: cell-based
T3 construct: full-length MDR1 cDNA was generated using the high-fidelity protocol developed previously; expressed in transfected cells
T3 sequence (P08183 whole entry G185V/S400I/S893A): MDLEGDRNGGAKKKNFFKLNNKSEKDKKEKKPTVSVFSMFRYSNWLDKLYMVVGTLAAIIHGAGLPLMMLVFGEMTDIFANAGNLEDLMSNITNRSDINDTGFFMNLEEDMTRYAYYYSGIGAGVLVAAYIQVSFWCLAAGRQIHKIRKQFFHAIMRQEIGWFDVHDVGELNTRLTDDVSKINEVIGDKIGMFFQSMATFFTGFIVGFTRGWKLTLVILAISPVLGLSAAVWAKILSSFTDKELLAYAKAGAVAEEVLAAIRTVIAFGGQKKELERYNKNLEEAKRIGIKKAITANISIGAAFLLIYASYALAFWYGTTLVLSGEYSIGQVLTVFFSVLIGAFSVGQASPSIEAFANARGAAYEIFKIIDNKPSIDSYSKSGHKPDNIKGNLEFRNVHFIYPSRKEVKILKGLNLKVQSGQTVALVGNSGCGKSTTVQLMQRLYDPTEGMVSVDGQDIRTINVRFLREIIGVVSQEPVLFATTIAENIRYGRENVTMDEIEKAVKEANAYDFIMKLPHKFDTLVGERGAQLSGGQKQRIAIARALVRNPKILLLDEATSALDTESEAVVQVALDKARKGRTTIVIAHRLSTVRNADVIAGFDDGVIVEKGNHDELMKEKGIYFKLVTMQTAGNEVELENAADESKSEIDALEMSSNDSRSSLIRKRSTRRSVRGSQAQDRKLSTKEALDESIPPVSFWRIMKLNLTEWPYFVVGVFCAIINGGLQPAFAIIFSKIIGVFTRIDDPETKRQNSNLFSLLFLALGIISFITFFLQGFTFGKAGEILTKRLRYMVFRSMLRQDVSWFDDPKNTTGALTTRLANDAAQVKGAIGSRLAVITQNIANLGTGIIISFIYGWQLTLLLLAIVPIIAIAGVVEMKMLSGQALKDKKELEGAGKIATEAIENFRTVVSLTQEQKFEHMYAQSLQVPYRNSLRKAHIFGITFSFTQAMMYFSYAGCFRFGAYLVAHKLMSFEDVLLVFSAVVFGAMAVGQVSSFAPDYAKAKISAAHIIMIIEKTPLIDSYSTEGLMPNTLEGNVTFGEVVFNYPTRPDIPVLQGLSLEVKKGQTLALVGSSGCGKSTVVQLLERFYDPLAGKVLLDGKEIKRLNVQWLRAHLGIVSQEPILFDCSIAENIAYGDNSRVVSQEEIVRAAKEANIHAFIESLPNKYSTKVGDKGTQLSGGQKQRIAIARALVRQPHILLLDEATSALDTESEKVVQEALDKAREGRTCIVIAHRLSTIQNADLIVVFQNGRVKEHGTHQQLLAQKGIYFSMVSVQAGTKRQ

[11] = target: T4, MDR1wt in recombinant HEK cells (Homo sapiens, UniProt P08183, G185V/S893A); assay: Intracellular levels of Rhodamine123 in HEK cells; assay type: cell-based
T4 construct: full-length MDR1 cDNA was generated using the high-fidelity protocol developed previously; expressed in transfected cells
T4 sequence (P08183 whole entry G185V/S893A): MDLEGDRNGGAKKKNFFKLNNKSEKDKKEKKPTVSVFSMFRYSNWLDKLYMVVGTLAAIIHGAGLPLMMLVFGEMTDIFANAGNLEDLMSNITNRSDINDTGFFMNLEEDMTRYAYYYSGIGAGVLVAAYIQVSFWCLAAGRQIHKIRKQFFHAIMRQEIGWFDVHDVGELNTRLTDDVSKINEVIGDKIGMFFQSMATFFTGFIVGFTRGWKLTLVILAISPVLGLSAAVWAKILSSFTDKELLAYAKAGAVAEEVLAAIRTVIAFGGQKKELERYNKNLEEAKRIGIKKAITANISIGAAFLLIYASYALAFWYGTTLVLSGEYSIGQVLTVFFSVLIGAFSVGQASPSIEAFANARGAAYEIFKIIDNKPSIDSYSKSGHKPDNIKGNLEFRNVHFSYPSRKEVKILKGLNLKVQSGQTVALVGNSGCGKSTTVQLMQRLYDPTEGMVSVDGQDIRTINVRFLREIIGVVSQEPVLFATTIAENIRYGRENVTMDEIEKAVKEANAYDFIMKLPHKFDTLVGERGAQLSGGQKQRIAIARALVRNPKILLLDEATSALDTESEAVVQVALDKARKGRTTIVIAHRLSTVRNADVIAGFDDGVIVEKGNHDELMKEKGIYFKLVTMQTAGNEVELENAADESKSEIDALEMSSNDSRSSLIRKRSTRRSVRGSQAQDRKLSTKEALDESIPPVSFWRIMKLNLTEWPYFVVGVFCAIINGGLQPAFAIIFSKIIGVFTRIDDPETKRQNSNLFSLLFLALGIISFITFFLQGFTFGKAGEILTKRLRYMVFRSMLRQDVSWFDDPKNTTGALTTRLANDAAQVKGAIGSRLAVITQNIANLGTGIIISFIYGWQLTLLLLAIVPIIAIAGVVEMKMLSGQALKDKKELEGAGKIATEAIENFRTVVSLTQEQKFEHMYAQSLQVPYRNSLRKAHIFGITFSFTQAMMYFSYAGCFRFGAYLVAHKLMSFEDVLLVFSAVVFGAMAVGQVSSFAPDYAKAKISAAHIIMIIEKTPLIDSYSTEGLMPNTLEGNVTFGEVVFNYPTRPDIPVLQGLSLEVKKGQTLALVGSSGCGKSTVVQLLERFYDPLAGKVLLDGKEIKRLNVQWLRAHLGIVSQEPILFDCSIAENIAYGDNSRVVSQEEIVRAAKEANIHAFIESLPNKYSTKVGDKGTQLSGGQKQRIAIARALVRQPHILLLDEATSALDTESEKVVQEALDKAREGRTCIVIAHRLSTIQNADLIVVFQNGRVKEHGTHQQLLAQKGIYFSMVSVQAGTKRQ

[12] = protease inhibitor + GF120918 (1 μM)
[13] = HEK Control, 72hours, MTS, read-out: EC50 (Mean ± S.D.)
[14] = HEK MDR1 G1199T, 72hours, MTS, read-out: EC50 (Mean ± S.D.)
[15] = HEK MDR1 WT, 72hours, MTS, read-out: EC50 (Mean ± S.D.)
[16] = 0.5 uM, 30 min load, 30 min efflux

With `Cc1cccc(C)c1OCC(=O)N[C@@H](Cc1ccccc1)[C@@H](O)C[C@H](Cc1ccccc1)NC(=O)[C@H](C(C)C)N1CCCNC1=O` [lopinavir] the “Rate of transfer dQ/dt ± s.d., A → B” value (LLC-PK1 control cells [1]; [12]) was 8.48 ± 0.16, the “Rate of transfer dQ/dt ± s.d., A → B” value (LLC-PK1 control cells [1]; protease inhibitor alone, 5 μM) was 9.21 ± 0.24 and the “decrease in apical-to-basolateral flux in MDR11199 cells compared to MDR1wt cells” value [2] was 1.6 fold.
In the case of `Cc1c(O)cccc1C(=O)N[C@@H](CSc1ccccc1)[C@H](O)CN1C[C@H]2CCCC[C@H]2C[C@H]1C(=O)NC(C)(C)C` [nelfinavir], the “oral bioavailability in systemic circulation” value [3] is given as 70-80%.
With `CC(=O)O[C@H]1C(=O)[C@@]2(C)[C@H]([C@H](OC(=O)c3ccccc3)[C@]3(O)C[C@H](OC(=O)[C@H](O)[C@@H](NC(=O)c4ccccc4)c4ccccc4)C(C)=C1C3(C)C)[C@]1(OC(C)=O)CO[C@@H]1C[C@@H]2O` [paclitaxel] the EC50 [4, 13] was 2.67 ± 0.13 nM, the EC50 at 72 h (MDR1 (G1199T variant); [14]) was 42.7 ± 12.7 nM and the EC50 at 72 h (MDR1 (wild type); [15]) was 128 ± 50 nM.
With `CC(C)c1nc(CN(C)C(=O)N[C@H](C(=O)N[C@@H](Cc2ccccc2)C[C@H](O)[C@H](Cc2ccccc2)NC(=O)OCc2cncs2)C(C)C)cs1` [ritonavir] the Km (LLC-PK1 control cells [5]) was 0.25 µM, the “Rate of transfer dQ/dt ± s.d., A → B” value (LLC-PK1 control cells [1]; [12]) was 6.46 ± 0.69 and the “Rate of transfer dQ/dt ± s.d., B → A” value (LLC-PK1 control cells [1]; [12]) was 9.60 ± 0.75. For the same compound, the “Rate of transfer dQ/dt ± s.d., A → B” value (LLC-PK1 control cells [1]; protease inhibitor alone, 5 μM) was 6.46 ± 0.94, the “Rate of transfer dQ/dt ± s.d., B → A” value (LLC-PK1 control cells [1]; protease inhibitor alone, 5 μM) was 11.0 ± 0.5 and the “oral bioavailability in systemic circulation” value [3] was 60-80%. For the same compound, the “decrease in apical-to-basolateral flux in MDR11199 cells compared to MDR1wt cells” value [2] was 2.3 fold and the “increase in basolateral-to-apical efflux in MDR11199 cells compared to MDR1wt” value [2] was 1.2 fold.
With `CC[C@]1(O)C[C@@H]2CN(CCc3c([nH]c4ccccc34)[C@@](C(=O)OC)(c3cc4c(cc3OC)N(C)[C@H]3[C@@](O)(C(=O)OC)[C@H](OC(C)=O)[C@]5(CC)C=CCN6CC[C@]43[C@@H]65)C2)C1` [vinblastine] the EC50 [4, 13] was 1.45 ± 0.23 nM, the EC50 at 72 h (MDR1 (G1199T variant); [14]) was 54.7 ± 7.99 nM and the “EC50 fold-change from control” value [6] was 23.8 fold. The “resistance of MDR11199 cells relative to MDR1wt cells” value [6] was “about 11 fold”, the EC50 [6] was 15.7 nM and the “resistance of MDR11199 cells compared with MDR1wt cells” value [6] was “more resistant”. The EC50 (LLC-PK1 control cells [7]) was 0.66 ± 0.22 nM, the “EC50 fold-change from control” value [8] was 2.14 fold and the EC50 [8] was 1.41 ± 0.51 nM. For the same compound, the directional transepithelial transport (rMRP1) was “exhibit directional transepithelial transport”, the EC50 at 72 h (MDR1 (wild type); [15]) was 127 ± 13 nM and the EC50 (MDR1 (G1199A variant)) was 243 ± 15.1 nM.
Compound `CC[C@]1(O)C[C@H]2CN(CCc3c([nH]c4ccccc34)[C@@](C(=O)OC)(c3cc4c(cc3OC)N(C=O)[C@H]3[C@@](O)(C(=O)OC)[C@H](OC(C)=O)[C@]5(CC)C=CCN6CC[C@]43[C@@H]65)C2)C1` [vincristine] has an EC50 [4, 13] of 10.2 ± 1.04 nM, an EC50 ([4]; HEK negative control, 0 month, 72 hours, read-out: EC50 for cell growth inhibition) of 4.01 ± 1.29 nM and an EC50 ([4]; HEK negative control, 1 months, 72 hours, read-out: EC50 for cell growth inhibition) of 6.68 ± 0.448 nM. The EC50 ([4]; HEK negative control, 2 months, 72 hours, read-out: EC50 for cell growth inhibition) was 10.2 ± 1.04 nM, the EC50 at 72 h (MDR1 (G1199T variant); HEK - MDR1 G1199T, 0 month, 72 hours, read-out: EC50 for cell growth inhibition) was 246 ± 84 nM and the “EC50 fold-change from control” value [6] was 9.23 fold. For the same compound, the “resistance of MDR11199 cells relative to MDR1wt cells” value [6] was roughly 2.9 fold, the EC50 [6] was 3.41 ± 1.47 nM and the “resistance of MDR11199 cells compared with MDR1wt cells” value [6] was “more resistant”. The EC50 (LLC-PK1 control cells [7]) was 0.37 ± 0.12 nM, the “EC50 fold-change from control” value [8] was 3.19 fold and the EC50 [8] was 1.18 ± 0.56 nM. It also gave an EC50 at 72 h (MDR1 (wild type); HEK - MDR1 WT, 0 month, 72 hours, read-out: EC50 for cell growth inhibition) of 494 ± 115 nM, an EC50 at 72 h (MDR1 (wild type); HEK - MDR1 WT, 1 months, 72 hours, read-out: EC50 for cell growth inhibition) of 512 ± 85.1 nM and an EC50 at 72 h (MDR1 (wild type); HEK - MDR1 WT, 2 months, 72 hours, read-out: EC50 for cell growth inhibition) of 710 ± 33.3 nM. For the same compound, the EC50 at 72 h (MDR1 (wild type); [15]) was 710 ± 33.3 nM, the EC50 at 72 h (MDR1 (G1199A variant)) was 860 ± 51.8 nM and the EC50 at 72 h (MDR1 (G1199A variant); EC50 for cell growth inhibition, HEK - MDR1 G1199A, 0 month, 72 hours) was 683 ± 276 nM. It also gave an EC50 at 72 h (MDR1 (G1199A variant); EC50 for cell growth inhibition, HEK - MDR1 G1199A, 1 months, 72 hours) of 667 ± 87.5 nM and an EC50 at 72 h (MDR1 (G1199A variant); EC50 for cell growth inhibition, HEK - MDR1 G1199A, 2 months, 72 hours) of 860 ± 51.8 nM.
For Rhodamine-123 [R123], the “% of control” value (HEK293 control cells) was 100%, the “Intracellular Rhodamine” value (HEK293 control cells; [16]) was 4.66 ± 0.14 Unit/mg protein and the “Intracellular Rhodamine” value [9, 16] was 1.44 ± 0.12 Unit/mg protein. For the same compound, the “% of control” value ([9]; converted to HEK293) was 340%, the “Intracellular Rhodamine” value [10, 16] was 1.82 ± 0.17 Unit/mg protein and the “% of control” value ([10]; converted to HEK293) was 260%. The “Intracellular Rhodamine” value [11, 16] was 2.26 ± 0.06 Unit/mg protein and the “% of control” value ([11]; converted to HEK293) was 220%.
